In patent publication US20260325533A1, “CDK INHIBITOR COMPOUNDS” (ALEKSIA THERAPEUTICS, INC., priority 2023, published 2026):
Like-named read-outs stand apart in the source and are kept apart here. Values belong to the molecule of their own block, whether it stands above or below them.

Columns and labels:
Assay type in all cases: biochemical
[1] = molecular target: CDK1/CCNB1 (Homo sapiens, UniProt P06493); experiment: CDK1 homogeneous time-resolved fluorescence (HTRF) kinase assay; details: CDK1/CCNB
Chain of CDK1/CCNB1 (P06493 whole entry): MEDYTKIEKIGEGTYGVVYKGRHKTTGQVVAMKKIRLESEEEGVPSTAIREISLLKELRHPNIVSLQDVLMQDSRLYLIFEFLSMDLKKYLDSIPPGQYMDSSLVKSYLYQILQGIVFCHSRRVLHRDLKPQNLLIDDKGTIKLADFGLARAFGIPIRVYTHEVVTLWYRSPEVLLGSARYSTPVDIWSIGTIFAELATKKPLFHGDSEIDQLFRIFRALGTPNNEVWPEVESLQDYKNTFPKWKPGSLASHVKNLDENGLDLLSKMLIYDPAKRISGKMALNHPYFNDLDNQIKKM
Chain of CDK1/CCNB1 (P14635 whole entry partner): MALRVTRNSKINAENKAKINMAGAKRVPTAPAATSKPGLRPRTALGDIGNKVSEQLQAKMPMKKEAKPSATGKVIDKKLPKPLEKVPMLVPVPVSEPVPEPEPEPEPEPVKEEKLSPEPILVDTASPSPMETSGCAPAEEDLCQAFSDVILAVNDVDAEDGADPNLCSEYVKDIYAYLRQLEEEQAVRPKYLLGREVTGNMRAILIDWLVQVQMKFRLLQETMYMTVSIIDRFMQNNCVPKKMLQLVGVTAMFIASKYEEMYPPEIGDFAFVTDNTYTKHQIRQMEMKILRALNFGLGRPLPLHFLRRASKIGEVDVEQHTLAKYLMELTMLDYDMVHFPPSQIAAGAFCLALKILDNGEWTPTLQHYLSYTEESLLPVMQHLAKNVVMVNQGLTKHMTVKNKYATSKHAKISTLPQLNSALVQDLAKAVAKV
Procedure, shortened: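 HTRF assay with 0.5 nM CDK1/CCNB1, 1 mM ATP, 50 nM ULight-eIF4E-BP1 (Thr37/46) peptide; compound preincubated 20 min, reaction 60 min at 23 °C, EDTA stop, Eu-anti-phospho antibody detection. 11-point half-log titration from 10 μM, 1% DMSO; IC50 from 665 nm or 665/615 signal.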

[2] = molecular target: CDK4/CCND3 (Homo sapiens, UniProt P11802); experiment: CDK4 homogeneous time-resolved fluorescence (HTRF) kinase assay; details: CDK4/CCND
Chain of CDK4/CCND3 (P11802 whole entry): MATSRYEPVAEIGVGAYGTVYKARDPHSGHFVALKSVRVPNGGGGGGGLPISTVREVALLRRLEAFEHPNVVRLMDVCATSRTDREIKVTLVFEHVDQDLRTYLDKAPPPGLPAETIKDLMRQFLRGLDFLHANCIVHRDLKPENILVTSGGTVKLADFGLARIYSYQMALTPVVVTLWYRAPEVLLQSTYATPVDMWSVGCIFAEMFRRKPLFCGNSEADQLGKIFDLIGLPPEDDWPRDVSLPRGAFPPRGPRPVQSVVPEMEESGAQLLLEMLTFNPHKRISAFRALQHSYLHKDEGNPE
Chain of CDK4/CCND3 (P30281 whole entry partner): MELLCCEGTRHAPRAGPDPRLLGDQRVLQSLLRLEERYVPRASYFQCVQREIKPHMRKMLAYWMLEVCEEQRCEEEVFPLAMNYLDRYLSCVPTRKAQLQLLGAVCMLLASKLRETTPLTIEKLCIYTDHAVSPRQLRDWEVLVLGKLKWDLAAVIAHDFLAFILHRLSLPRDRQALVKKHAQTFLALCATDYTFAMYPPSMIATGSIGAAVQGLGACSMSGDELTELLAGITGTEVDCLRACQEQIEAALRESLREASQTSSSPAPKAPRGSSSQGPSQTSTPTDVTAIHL
Procedure, shortened: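 IC50s derive from Lance 665 nm or 665/615 nm signals in 11-point, half-log dose series (top 10 μM, 1% DMSO). The enzyme, 1.5 nM CDK4/CCND3, phosphorylates 50 nM ULight-4E-BP1 peptide with 1 mM ATP over 60 min at 23 °C.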

[3] = molecular target: CDK6/CCND1 (Homo sapiens, UniProt Q00534); experiment: CDK6 homogeneous time-resolved fluorescence (HTRF) kinase assay; details: CDK6/CCND
Chain of CDK6/CCND1 (Q00534 whole entry): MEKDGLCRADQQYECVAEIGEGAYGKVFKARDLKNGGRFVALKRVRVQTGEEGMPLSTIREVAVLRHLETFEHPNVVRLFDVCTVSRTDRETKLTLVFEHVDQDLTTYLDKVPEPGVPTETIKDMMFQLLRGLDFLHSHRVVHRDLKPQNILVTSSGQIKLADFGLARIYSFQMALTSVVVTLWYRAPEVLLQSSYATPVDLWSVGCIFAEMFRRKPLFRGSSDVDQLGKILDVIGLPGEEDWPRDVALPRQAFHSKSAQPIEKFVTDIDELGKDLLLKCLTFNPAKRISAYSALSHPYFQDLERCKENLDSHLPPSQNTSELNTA
Chain of CDK6/CCND1 (P24385 whole entry partner): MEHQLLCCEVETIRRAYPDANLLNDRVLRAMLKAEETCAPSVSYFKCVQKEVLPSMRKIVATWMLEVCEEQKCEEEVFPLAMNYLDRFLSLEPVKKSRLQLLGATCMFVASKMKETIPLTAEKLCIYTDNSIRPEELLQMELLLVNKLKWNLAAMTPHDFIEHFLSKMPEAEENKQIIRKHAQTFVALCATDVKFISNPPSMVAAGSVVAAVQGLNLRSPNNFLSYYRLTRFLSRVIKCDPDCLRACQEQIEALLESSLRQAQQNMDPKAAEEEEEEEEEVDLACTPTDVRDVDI
Procedure, shortened: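 Assay conditions: HEPES buffer containing 10 mM MgCl2, 1 mM EGTA, 2 mM DTT, 0.01% Tween 20; 1 nM CDK6/CCND1, 50 nM peptide substrate, 1 mM ATP. Detection after 60 min reaction used 2 nM europium antibody with 340 nm excitation. Potency fitted from half-log series, 11 points.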

[4] = molecular target: CDK2/CCNE1 (Homo sapiens, UniProt P24941); experiment: CDK2 homogeneous time-resolved fluorescence (HTRF) kinase assay; details: CDK2/CCNE
Procedure, shortened: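 An HTRF format measures CDK2/CCNE1 (3 nM) phosphorylating a 4E-BP1 Thr37/46 peptide at high (1 mM) ATP. Reactions run one hour at 23 °C, then EDTA-quenched and probed with Eu-labelled phospho-specific antibody.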

[5] = >250 nM, read-out: CDK1/CCNB IC50 >250 nM
[6] = 25-250 nM, read-out: CDK4/CCND IC50, 25-250 nM
[7] = >250 nM, 1 mM ATP, read-out: CDK6/CCND IC50, >250 nM
[8] = <25 nM, read-out: CDK2/CCNE IC50, <25 nM
[9] = x = IC50 25-250 nM, read-out: CDK1/CCNB IC50 (25-250 nM)
[10] = x = IC50 >250 nM, read-out: CDK4/CCND IC50 (>250 nM column)
[11] = x = IC50 >250 nM, read-out: CDK6/CCND IC50 (>250 nM column)
[12] = x = IC50 <25 nM, read-out: CDK2/CCNE IC50 (<25 nM)
[13] = 25-250 nM marked x, read-out: CDK4/CCND IC50 25-250 nM
[14] = <25 nM, read-out: CDK2/CCNE IC50 <25 nM
[15] = >250 nM marked x, read-out: CDK1/CCNB IC50 >250 nM
[16] = >250 nM marked x, read-out: CDK4/CCND IC50 >250 nM
[17] = >250 nM marked x, read-out: CDK6/CCND IC50 >250 nM
[18] = 25-250 nM marked x, read-out: CDK2/CCNE IC50 25-250 nM
[19] = >250 nM, read-out: CDK4/CCND IC50, >250 nM

IC50 [1, 5]: > 250 nM
IC50 [2, 6]: 25 to 250 nM
IC50 [3, 7]: > 250 nM
IC50 [4, 8]: < 25 nM
SMILES: CS(=O)(=O)c1ccc(Nc2cc3c(C#CC45CCC(Cl)(CC4)CC5)nccc3cn2)cc1 (racemic) [Ex 944, 5-((4-chlorobicyclo[2.2.2]octan-1-yl)ethynyl)-N-(4-(methylsulfonyl)phenyl)-2,6-naphthyridin-3-amine]

IC50 [1, 5]: > 250 nM
IC50 [2, 6]: 25 to 250 nM
IC50 ([3]; 25-250 nM, 1 mM ATP, read-out: CDK6/CCND IC50, 25-250 nM): 25 to 250 nM
IC50 [4, 8]: < 25 nM
SMILES: Cc1nn(C)cc1S(=O)(=O)Nc1ccc(Nc2cc3c(-c4ccc5c(cnn5CC(C)(C)O)c4C)nccc3cn2)cc1 [Ex 843, N-(4-((5-(1-(2-hydroxy-2-methylpropyl)-4-methyl-1H-indazol-5-yl)-2,6-naphthyridin-3-yl)amino)phenyl)-1,3-dimethyl-1H-pyrazole-4-sulfonamide]

IC50 [1, 9]: 25 to 250 nM
IC50 [2, 10]: > 250 nM
IC50 [3, 11]: > 250 nM
IC50 [4, 12]: < 25 nM
SMILES: Cc1cc(S(N)(=O)=O)ccc1Nc1cc2c(C#Cc3cccnc3N)nccc2cn1 [Ex 448, 4-((5-((2-aminopyridin-3-yl)ethynyl)-2,6-naphthyridin-3-yl)amino)-3-methylbenzenesulfonamide]

IC50 ([1]; 25-250 nM marked x, read-out: CDK1/CCNB IC50 25-250 nM): 25 to 250 nM
IC50 [2, 13]: 25 to 250 nM
IC50 ([3]; <25 nM, read-out: CDK6/CCND IC50 <25 nM): < 25 nM
IC50 [4, 14]: < 25 nM
SMILES: CS(=O)(=O)N1CCC(Nc2cc3c(N4CCCC(C#N)C4)nccc3cn2)CC1 (racemic) [Ex 39, 1-(7-((1-(methylsulfonyl)piperidin-4-yl)amino)-2,6-naphthyridin-1-yl)piperidine-3-carbonitrile]

IC50 ([1]; x = IC50 >250 nM, read-out: CDK1/CCNB IC50 (>250 nM column)): > 250 nM
IC50 [2, 10]: > 250 nM
IC50 [3, 11]: > 250 nM
IC50 [4, 12]: < 25 nM
SMILES: CCC1(CC)C(=O)Nc2cc(C#Cc3nccc4cnc(Nc5ccc(S(=O)(=O)CC)cc5OC)cc34)ccc21 [Ex 371, 3,3-diethyl-6-((7-((4-(ethylsulfonyl)-2-methoxyphenyl)amino)-2,6-naphthyridin-1-yl)ethynyl)indolin-2-one]

IC50 [1, 15]: > 250 nM
IC50 [2, 16]: > 250 nM
IC50 [3, 17]: > 250 nM
IC50 [4, 18]: 25 to 250 nM
SMILES: COCCNC(=O)[C@H]1CC[C@H](c2nccc3cnc(Nc4ccc(S(C)(=O)=O)cc4)cc32)CC1 [Ex 199, (1r,4r)-N-(2-methoxyethyl)-4-(7-((4-(methylsulfonyl)phenyl)amino)-2,6-naphthyridin-1-yl)cyclohexane-1-carboxamide]

IC50 [1, 5]: > 250 nM
IC50 [2, 19]: > 250 nM
IC50 [3, 7]: > 250 nM
IC50 [4, 8]: < 25 nM
SMILES: Cc1c(-c2nccc3cnc(Nc4ccc(S(=O)(=O)Nc5ncccn5)cc4)cc23)ccc2c1cnn2CC(C)(C)O [Ex 927, 4-((5-(1-(2-hydroxy-2-methylpropyl)-4-methyl-1H-indazol-5-yl)-2,6-naphthyridin-3-yl)amino)-N-(pyrimidin-2-yl)benzenesulfonamide]

IC50 [1, 9]: 25 to 250 nM
IC50 ([2]; x = IC50 25-250 nM, read-out: CDK4/CCND IC50 (25-250 nM)): 25 to 250 nM
IC50 ([3]; x = IC50 25-250 nM, read-out: CDK6/CCND IC50 (25-250 nM)): 25 to 250 nM
IC50 [4, 12]: < 25 nM
SMILES: CCS(=O)(=O)c1ccc(Nc2cc3c(C#Cc4ccc5c(c4)NC(=O)C54CC4)nccc3cn2)cc1 [Ex 397, 6'-((7-((4-(ethylsulfonyl)phenyl)amino)-2,6-naphthyridin-1-yl)ethynyl)spiro[cyclopropane-1,3'-indolin]-2'-one]

IC50 [1, 15]: > 250 nM
IC50 [2, 16]: > 250 nM
IC50 [3, 17]: > 250 nM
IC50 [4, 18]: 25 to 250 nM
SMILES: C=CS(=O)(=O)c1ccc(Nc2cc3c(-c4ccccc4OC(F)(F)F)nccc3cn2)cc1 [Ex 141, 5-(2-(trifluoromethoxy)phenyl)-N-(4-(vinylsulfonyl)phenyl)-2,6-naphthyridin-3-amine]

IC50 [1, 5]: > 250 nM
IC50 [2, 19]: > 250 nM
IC50 [3, 7]: > 250 nM
IC50 ([4]; 25-250 nM, read-out: CDK2/CCNE IC50, 25-250 nM): 25 to 250 nM
SMILES: COc1cc(C)c(C#Cc2nccc3cnc(Nc4ccc(S(C)(=O)=O)cc4)cc23)cn1 [Ex 910, 5-((6-methoxy-4-methylpyridin-3-yl)ethynyl)-N-(4-(methylsulfonyl)phenyl)-2,6-naphthyridin-3-amine]

IC50 [1, 15]: > 250 nM
IC50 [2, 13]: 25 to 250 nM
IC50 ([3]; 25-250 nM marked x, read-out: CDK6/CCND IC50 25-250 nM): 25 to 250 nM
IC50 [4, 14]: < 25 nM
SMILES: CS(=O)(=O)N1CCC(Nc2cc3c(-c4cncs4)nccc3cn2)CC1 [Ex 82, N-(1-(methylsulfonyl)piperidin-4-yl)-5-(thiazol-5-yl)-2,6-naphthyridin-3-amine]
